# Test results taken from paper PMC3857039, “First Quantitative Imaging of Organic Fluorine within Angiogenic Tissues by Particle Induced Gamma-Ray Emission (PIGE) Analysis: First PIGE Organic Fluorine Imaging” (Pharmaceutics, 2011).
# Where a SMILES comes first, the peptide text is derived from it. [ ]: non-standard residue; d: D form. The star is where a group is joined. X1 = FC(F)(F)C(F)(F)C(F)(F)C(F)(F)C(F)(F)C(F)(F)CCCOCCOCCOCCN*
# Columns and labels:
# [1] = system: chicken chorioallantoic membrane (CAM); assay: PIGE/RBS quantification of fluorine in normal CAM tissue and capillaries after intravascular injection of fluorinated tracer; type: in vivo; conditions: for Average fluorine concentration, physiological tissue, CAM (surrounding tissue) / Average fluorine concentration, physiological tissue, Capillaries: 100 μL per embryo, sacrifice 6 h after injection, PIGE
# Experimental: (§1) In preparation for the intravascular injection, 274 mg of FDG is dissolved in 1 mL sterile PBS. For the polyfluorinated glucose solution, 10 mg of the probe was added to 1 mL of polypropylene glycol (MW = 400 g/mol). F13-CBO-P11 solutions were prepared in sterile PBS. For the latter, solutions were obtained by the addition of 20 mg and 35 mg of peptide in 1 mL sterile PBS.
# (§2) Fertilized chicken eggs were incubated at 37 °C in a humidified atmosphere. On day 4 of incubation, a window was made in the shell in order to visualize the chorio allantoïc membrane (CAM). On embryonic day 10, in the tumor group, a ring was put on the CAM and U87 glioma cells (5 million cells per egg suspended in 20 μL of medium) were deposited on the CAM within the ring after gentle laceration of the surface. In the other group, a nylon grid was put on the CAM to allow normal tissue to grow on the grid. After 7 days of implantation (embryonic day 17), FDG, polyfluorinated glucose and F13-CBO-P11 solutions were then injected in a blood vessel of the CAM of each egg (100 μL per embryo). Embryos were sacrificed 6 hours after injection. All samples were removed and snap-frozen in liquid nitrogen-chilled isopentane at −160 °C. CAM samples and normal tissue (S1, Scheme 1) coming from nylon grid were then put on targets (2 mm-thick and 20 mm-diameter aluminium target with a 5 mm-hole in the centre) and freeze-dried during 3 days at−30 °C in a cryostat (CM3050S, Leica Microsystems). Tumors were conserved at −80 °C until sectioning. For tumor tissue, successive serial sections (at 100, 200 and 300 μm) were obtained from the CAM to the tumor (S2 to S4, Scheme 1) using the cryostat, put on targets and freeze-dried. After sample preparation, microphotographs were taken to monitor the experiment.
# (§3) Particle Induced γ-ray Emission (PIGE) and Rutherford Backscattering Spectrometry (RBS) were performed simultaneously to determine trace elements quantitative distribution, such as F and Fe, and major element as C, N, and O determination, respectively (Figure1). Analyses were performed with proton beam energy at 3.4 MeV in order to benefit from a high cross section for the nuclear reaction for fluorine. Analyses were realized on zones of typically 850 × 850 μm in a scanning mode of the proton beam. The beam was focused onto the sample surface to a spot of 5 μm in diameter, resulting in a proton beam current of 500 pA as measured with a Faraday cup below the sample. Characteristics gamma rays emitted from elements of the target were detected with an ultralow energy planar germanium detector (surface of the Ge crystal is 100 mm², thickness 10 mm) placed at 45° from incident beam. The γ-ray detector was covered by a 100 μm thick carbon filter (hole 0.2% of the total filter surface), to protect the γ-ray detector from backscattered particles. The RBS measurements were performed using a PIPS detector (passivated implanted planar silicon) placed at 135° from the incident beam direction.
# (§4) CaF2 micromatter standard (certified material from NIST) and a PVDF film (polyvinylidene difluoride, 25 μm thick) were used as external standard in order to verify the quantification process. γ-ray emission data were analyzed with the Supavisio software to create mask of interesting areas of selected chemical elements. RBS data were analyzed with SIMNRA code.
# The quantification of fluorine was performed by comparative analysis with reference standard. PVDF films were analyzed in order to simulate the composition and thickness of biological samples. PyMCA software was used to fit the 110 keV γ peak on PIGE spectra on a PVDF film and biological samples. The intensity of the peak in the PVDF was used to normalize yield in samples [14, 16].
# The combination of PIGE and RBS quantitative data were used for mass normalization of y-ray emission, leading to element concentrations expressed in terms of μg of element per g of dry mass sample. […]
# [2] = system: U87 human glioma cells tumor xenografted on the CAM; assay: PIGE/RBS quantification of fluorine in sections of U87 glioma tumor implanted on the CAM after intravascular injection of fluorinated tracer; type: in vivo, chicken; conditions: for Average fluorine concentration, pathological tissue, tumor section (surrounding tissue) / Average fluorine concentration, pathological tissue, capillaries of tumor section / Average fluorine concentration, pathological tissue, Tumor: sacrifice 6 h after injection, PIGE, per g dry mass; for Average fluorine concentration, pathological tissue, Tumor: FDG 1.53 M
# Experimental: as §1
# U87 human glioma cells (ATCC) were selected for the study as an established model for malignant gliomas that form highly vascularized tumors. Cells were maintained in culture using Dulbecco's modified Eagle's medium (DMEM) with 10% FBS, L-glutamine (2 mmol L^−1), and antibiotics (penicillin 50 UI mL^−1, streptomycin 50 μg mL^−1). Cell culture was performed in a 37 °C incubator with humidified atmosphere and 5% CO2. Cells were grown to confluence, harvested after trypsinization, and re-suspended in serum-free DMEM for implantation.
# as §2, §3, §4
# The quantification of fluorine was performed by comparative analysis with reference standard. […]
# [3] = system: U87 human glioma cells tumor xenografted on the CAM; assay: as above; type: in vivo, chicken; conditions: Sample 2, section S1 (tumor section); FDG 0.77 M in PBS, 100 μL per embryo, sacrifice 6 h after injection; PIGE; per g dry mass
# [4] = Sample 8, section S1 (CAM sample, no tumor), 35 mM in PBS, per g dry mass
# [5] = Sample 6, serial tumor section S2, 20 mM in PBS, 100 μL per embryo
# [6] = Sample 7, serial tumor section S2, 35 mM in PBS, 100 μL per embryo
# [7] = Sample 3, section S1 (CAM sample, no tumor), FDG 1.53 M in PBS, per g dry mass
smiles,measurement,setting,value
CC[C@H](C)[C@@H]1NC(=O)[C@H](Cc2c[nH]cn2)NC(=O)[C@H](CCC(N)=O)NC(=O)CNC(=O)[C@H](CCC(N)=O)NC(=O)[C@H](Cc2c[nH]cn2)NC(=O)[C@@H]2CCCN2C(=O)[C@H](CCCCN)NC(=O)[C@H]([C@@H](C)CC)NC(=O)[C@H](CCCNC(=N)N)NC(=O)[C@H](CCSC)NC(=O)[C@H]([C@@H](C)CC)NC(=O)[C@H](CCC(N)=O)NC(=O)[C@@H]2CCCN2C(=O)[C@@H](Cc2ccccc2)NC(=O)[C@H](CCC(=O)NCCOCCOCCOCCCC(F)(F)C(F)(F)C(F)(F)C(F)(F)C(F)(F)C(F)(F)F)NC(=O)CNC1=O [Compound F13-CBO-P11] (cyclo(E(X1)[dF]PQIMRIKPHQGQHIG)),"Average fluorine concentration, physiological tissue, CAM (surrounding tissue)",[1]; [4],2050±175 μg/g
same,"Average fluorine concentration, physiological tissue, Capillaries",[1]; [4],6570±555 μg/g
same,"Fold higher fluorine concentration in capillaries than in surrounding tissue, normal tissue","[1]; sample 8, 35 mM",3 times
same,"Average fluorine concentration, pathological tissue, tumor section (surrounding tissue)","[2]; Sample 6, serial tumor section S1, 20 mM in PBS, 100 μL per embryo (0.49 mg fluorine)",450±35 μg/g
same,"Average fluorine concentration, pathological tissue, capillaries of tumor section","[2]; Sample 6, serial tumor section S1, 20 mM in PBS, 100 μL per embryo",610±70 μg/g
same,"Average fluorine concentration, pathological tissue, capillaries of tumor section",[2]; [5],360±50 μg/g
same,"Average fluorine concentration, pathological tissue, tumor section (surrounding tissue)",[2]; [5],270±20 μg/g
same,"Average fluorine concentration, pathological tissue, tumor section (surrounding tissue)","[2]; Sample 7, serial tumor section S1, 35 mM in PBS, 100 μL per embryo (0.85 mg fluorine)",345±30 μg/g
same,"Average fluorine concentration, pathological tissue, capillaries of tumor section","[2]; Sample 7, serial tumor section S1, 35 mM in PBS, 100 μL per embryo",650±70 μg/g
same,"Average fluorine concentration, pathological tissue, capillaries of tumor section",[2]; [6],460±45 μg/g
same,"Average fluorine concentration, pathological tissue, tumor section (surrounding tissue)",[2]; [6],215±35 μg/g
same,Dose dependence of fluorine uptake,[2]; sample 6 (20 mM) versus sample 7 (35 mM),not dose dependant
same,"Fold higher fluorine concentration in capillaries than in surrounding tissue, tumor sections","[2]; samples 6 and 7, 20 and 35 mM",1.5 times
"O=C[C@H]([18F])[C@@H](O)[C@H](O)[C@H](O)CO [FDG, 2-deoxy-2-[18F]fluoro-D-glucose]",Ratio of fluorine concentrations between capillaries and tissues,[1]; FDG 0.77 and 1.53 M,close to one
same,Average fluorine concentration within capillaries as well as in surrounding tissues (homogeneous distribution),"[1]; FDG 0.77 and 1.53 M, overall average of Table 1",about 1600 μg/g
same,"Average fluorine concentration, physiological tissue, CAM","[1]; Sample 1, section S1 (CAM sample, no tumor), FDG 1.53 M in PBS, 100 μL per embryo into CAM blood vessel, embryonic day 17, sacrifice 6 h after injection, freeze-dried, PIGE 3.4 MeV, per g dry mass",1560±180 μg/g
same,"Average fluorine concentration, physiological tissue, Capillaries","[1]; Sample 1, section S1 (CAM sample, no tumor), FDG 1.53 M in PBS, per g dry mass",960±100 μg/g
same,"Average fluorine concentration, physiological tissue, CAM (surrounding tissue)",[1]; [7],1820±210 μg/g
same,"Average fluorine concentration, physiological tissue, Capillaries",[1]; [7],1460±170 μg/g
same,"Average fluorine concentration, pathological tissue, Tumor","[2]; Sample 3, serial tumor section S2, 100 μL per embryo",1640±170 μg/g
same,"Average fluorine concentration, pathological tissue, Tumor","[2]; Sample 3, serial tumor section S3, 100 μL per embryo",1950±240 μg/g
same,"Average fluorine concentration, pathological tissue, Tumor","[2]; Sample 3, serial tumor section S4, 100 μL per embryo",1470±140 μg/g
same,"Average fluorine concentration, pathological tissue, Tumor",[3],1570±180 μg/g
